Test results as given in patent US20140140931A1, “ANTIOXIDANT, NEUROPROTECTIVE AND ANTINEOPLASTIC NANOPARTICLES COMPRISING A THERAPEUTIC AGENT ON AN AMPHIPHILIC SPACER OR AN AMPHIPHILIC POLYMER” (CEDARS-SINAI MEDICAL CENTER, priority 2011, published 2014).

Columns and labels:
[1] = system: P-glycoprotein (Pgp); settings: cited from earlier work
[2] = 30 minutes after administration; cited from earlier work
[3] = cited from earlier work
[4] = system: intracranial U87 MG tumor xenograft; assay: Survival study of mice with intracranial U87 MG GBM xenograft; assay type: in vivo, athymic nu/nu mice; settings: i.v. every three days for 4 weeks from day 7 (16 mg/kg/day CPT-TEG-ALA)
Procedure: All animal studies were performed according to Cedars-Sinai Medical Center Institutional Animal Care and Use Committee protocols. Female 6- to 8-week-old athymic nu/nu mice (Charles River Laboratories) were used for all experiments. […] For Intracranial tumor model, mice underwent intracranial stereotactic implantation of U87 MG cells. Mice were anesthetized using a ketamine and dexmedetomidine combination as a single intraperitoneal injection. 10^5 U87 MG cells suspended in 2 μl of PBS were implanted in the right frontal region of the brain using a Hamilton syringe. The animals received intraperitoneal injection of atipamezole to reverse the dexmedetomidine effect. A single subcutaneous injection of buprenorphine was administered for pain relief.
Two perpendicular diameters of the tumor are measured, and the volume is calculated according to the equation: V (mm^3)=L (mm)×W^2 (mm^2)/2, where L is the longest diameter and W is the diameter perpendicular to L. In the intracranial model, the animals (n=8) received intravenous (tail vein) injection of nanoprodrugs (16 mg/kg/day CPT-TEG-ALA) beginning 7 days after tumor implantation every three days for 4 weeks. […] As control, animals received injection of irinotecan, α-tocopherol nanosuspension, and saline
For mouse survival study, log-rank statistical analysis was performed. […]

Compound | Pgp substrate [1] | Lactone form hydrolyzed to an open ring [2] [%] | Solubility in water [3] | Median survival time [4] [days]
CCc1c2c(nc3ccc(O)cc13)-c1cc3c(c(=O)n1C2)COC(=O)[C@]3(O)CC [SN38] | substrates | – | – | –
CC[C@@]1(O)C(=O)OCc2c1cc1n(c2=O)Cc2cc3ccccc3nc2-1 [camptothecin, (S)-4-ethyl-4-hydroxy-1H-pyran-[3′,4′:6, 7]indolizino[1,2-b]quinoline-3,14(4H, 12H)-dione] | – | 50 | essentially insoluble in water | –
CCc1c2c(nc3ccc(OC(=O)N4CCC(N5CCCCC5)CC4)cc13)-c1cc3c(c(=O)n1C2)COC(=O)[C@]3(O)CC [irinotecan] | substrates | – | – | 41.0
